Consider five compounds from publication PMC7747014 (Journal of medicinal chemistry, 2015).

Series [1] addresses T1, drug−Top1−DNA cleavage complexes (Homo sapiens, UniProt P11387).
T1 sequence (P11387 1-765): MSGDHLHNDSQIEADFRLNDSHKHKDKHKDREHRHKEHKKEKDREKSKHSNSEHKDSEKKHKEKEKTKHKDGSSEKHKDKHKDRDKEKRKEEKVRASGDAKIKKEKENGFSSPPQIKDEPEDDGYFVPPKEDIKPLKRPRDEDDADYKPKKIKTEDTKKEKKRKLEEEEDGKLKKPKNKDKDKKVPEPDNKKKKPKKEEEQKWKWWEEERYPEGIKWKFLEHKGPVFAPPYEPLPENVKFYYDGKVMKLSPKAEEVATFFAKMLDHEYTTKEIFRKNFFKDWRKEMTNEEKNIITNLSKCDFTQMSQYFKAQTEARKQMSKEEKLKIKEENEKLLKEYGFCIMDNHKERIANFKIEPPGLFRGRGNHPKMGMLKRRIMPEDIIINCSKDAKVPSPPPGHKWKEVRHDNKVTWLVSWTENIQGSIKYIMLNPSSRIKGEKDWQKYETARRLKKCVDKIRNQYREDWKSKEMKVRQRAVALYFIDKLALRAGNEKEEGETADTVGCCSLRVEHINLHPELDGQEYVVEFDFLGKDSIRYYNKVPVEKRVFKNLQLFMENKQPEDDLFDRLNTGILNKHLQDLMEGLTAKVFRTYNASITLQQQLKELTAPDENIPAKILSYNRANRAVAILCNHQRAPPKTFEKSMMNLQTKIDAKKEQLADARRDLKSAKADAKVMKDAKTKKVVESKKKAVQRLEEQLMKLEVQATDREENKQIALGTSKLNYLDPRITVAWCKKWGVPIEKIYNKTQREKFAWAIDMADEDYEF
The series can be described thus: Kinetics of reversal assay of Top1-mediated DNA cleavage complexes. To be noted: for reversal of ternary cleavage complexes: common cleavage sites 70, 92, 97 and 119, forward reaction terminated with 0.35 M NaCl. Format: biochemical.

Another series has as its system breast MCF7. To be noted: read-out: cytotoxicity (GI50 in μM) breast MCF7; cited from earlier work.
For a further series, the system named is prostate DU-145. As to conditions: read-out: cytotoxicity (GI50 in μM) prostate DU-145; cited from earlier work.
In series [2] the target is T2, Human recombinant Top1 (Homo sapiens, UniProt P11387).
T2 sequence (P11387 1-765): T1 sequence (P11387 1-765)
To be noted: graded relative to 1 μM camptothecin; cited from earlier work.

The target in series [3] is T2, Human recombinant Top1. Nature of the series: Top1-mediated DNA cleavage assay. To be noted: for trapping of Top1 cleavage complexes at low concentration: 5 nM, dose-dependent gel (Figure 8). Format: biochemical.
The next series has as its system melanoma UACC-62. As to conditions: read-out: cytotoxicity (GI50 in μM) melanoma UACC-62; cited from earlier work.
The next series deals with CNS SF-539. As to conditions: read-out: cytotoxicity (GI50 in μM) CNS SF-539; cited from earlier work.
A further series concerns lung HOP-62. To be noted: read-out: cytotoxicity (GI50 in μM) lung HOP-62; cited from earlier work.
A further series has as its system renal SN12C. To be noted: read-out: cytotoxicity (GI50 in μM) renal SN12C; cited from earlier work.
The subject of a further series is colon HCT-116. As to conditions: read-out: cytotoxicity (GI50 in μM) colon HCT-116; cited from earlier work.
In series [4] the test system is 60 common human cancer cell lines (NCI-60). To be noted: cited from earlier work.
Series [5] addresses T3, recombinant TDP1 (Homo sapiens, UniProt Q9NUW8). As to conditions: read-out: TDP1 inhibition; semiquantitative IC50 scale; cited from earlier work.
A further series concerns ovarian OVACAR-3. To be noted: read-out: cytotoxicity (GI50 in μM) ovarian OVACAR-3; cited from earlier work.
Series [6] has as its target T3, recombinant TDP1. The series can be described thus: Gel-based assay measuring the inhibition of recombinant TDP1. The series is classed as biochemical. To be noted: read-out: TDP1 inhibition; semiquantitative IC50 scale.
The mark [7] stands for this setting: read-out: MGM values, range over the named compounds.

Entries after “also recorded” stand apart in the source; their conditions may differ. Where two headings read alike, the source gives them in different places. Where only a bound is given, the exact number is not on record here.

T3 sequence (Q9NUW8 whole entry): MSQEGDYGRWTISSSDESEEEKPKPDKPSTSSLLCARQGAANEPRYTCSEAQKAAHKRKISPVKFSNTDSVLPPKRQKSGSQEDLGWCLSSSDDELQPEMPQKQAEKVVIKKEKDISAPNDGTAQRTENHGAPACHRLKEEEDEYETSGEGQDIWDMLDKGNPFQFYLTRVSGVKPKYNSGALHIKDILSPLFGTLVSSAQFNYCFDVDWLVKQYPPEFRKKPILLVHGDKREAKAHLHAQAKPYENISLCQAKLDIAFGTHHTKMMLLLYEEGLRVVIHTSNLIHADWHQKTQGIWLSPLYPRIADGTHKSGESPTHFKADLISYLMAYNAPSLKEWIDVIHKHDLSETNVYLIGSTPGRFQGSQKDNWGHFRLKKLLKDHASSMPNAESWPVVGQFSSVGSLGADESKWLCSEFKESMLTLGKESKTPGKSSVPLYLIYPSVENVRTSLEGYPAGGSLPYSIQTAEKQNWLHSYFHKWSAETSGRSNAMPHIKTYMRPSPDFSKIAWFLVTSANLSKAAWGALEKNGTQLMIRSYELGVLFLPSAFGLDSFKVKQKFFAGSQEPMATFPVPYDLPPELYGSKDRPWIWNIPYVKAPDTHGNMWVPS

`CC[C@@]1(O)C(=O)OCc2c1cc1n(c2=O)Cc2cc3ccccc3nc2-1` [Compound 1, camptothecin]: the “reversal of ternary cleavage complexes” value in [1] is “reversed much faster”. For the same compound, the GI50 in the series with breast MCF7, in the series with prostate DU-145, in the series with melanoma UACC-62, in the series with CNS SF-539 and with lung HOP-62 was below 0.01 µM throughout. Besides, the Top1 cleavage entry at Human recombinant Top1 [2] is “++++”. Also, the “trapping of Top1 cleavage complexes at low concentration” value on Human recombinant Top1 [3] was “lesser activity at that concentration”.

`COc1cc2c(cc1O)-c1c(c3cc(OC)c(OC)cc3c(=O)n1CCCN1CCOCC1)C2=O` [Compound 8]: the GI50 is 0.19 µM with renal SN12C; 0.03 µM in the series on breast MCF7; 0.2 µM in the series on prostate DU-145; 2.3 µM in the series on colon HCT-116; 3100 ± 300 nM in series [4] (read-out: MGM, average GI50 across 60 cell lines); 0.07 µM in the series with melanoma UACC-62. Moreover, the GI50 was 0.28 µM in the series with CNS SF-539, 8.3 µM with ovarian OVACAR-3 and 0.18 µM with lung HOP-62. Besides, the IC50 at recombinant TDP1 [5] is 37000 to 111000 nM.

Regarding `COc1cc2c(cc1O)C(=O)c1c-2n(CCCN2CCOCC2)c(=O)c2cc(OC)c(OC)cc12` [Compound 10], the GI50 in the series on renal SN12C was 0.02 µM; in the series with breast MCF7 it was 0.02 µM; in the series with prostate DU-145, 0.02 µM; in the series with colon HCT-116, 0.03 µM; in [4] (setting [7]), 55 to 87 nM; in the series on melanoma UACC-62, 0.02 µM. Besides, the figures for the GI50 in the series on CNS SF-539, in the series on ovarian OVACAR-3 and with lung HOP-62 were 0.02 µM, 0.03 µM and 0.02 µM, respectively. For the same compound, the Top1 cleavage entry at Human recombinant Top1 [2] is on record as “+++++”.

As for `COc1cc2c(cc1O)C(=O)c1c-2n(CCCn2ccnc2)c(=O)c2cc(OC)c(OC)cc12` [Compound 11], the GI50 is below 0.01 µM in the series with renal SN12C; below 0.01 µM in the series on breast MCF7; below 0.01 µM in the series with prostate DU-145; below 0.01 µM with colon HCT-116; 55 to 87 nM in series [4] (setting [7]); below 0.01 µM in the series with melanoma UACC-62. For the same compound, the GI50 was below 0.01 µM in the series with CNS SF-539, 0.02 µM in the series with ovarian OVACAR-3 and below 0.01 µM with lung HOP-62.

As for `O=C1c2cc(O)ccc2-c2c1c1ccc([N+](=O)[O-])cc1c(=O)n2CCCBr` [Compound 68, 6-(3-Bromopropyl)-9-hydroxy-3-nitro-5H-indeno[1,2-c]-isoquinoline-5,11(6H)-dione], in series [1], the “reversal of ternary cleavage complexes” value was “quite persistent but did reverse over time; also recorded: reversed slower than that of camptothecin”. Also, the “DNA alkylation / irreversible ternary cleavage complex” value in series [1] (from decrease of cleavage bands over time) is “did not alkylate or form an irreversible ternary cleavage complex; also recorded: no evidence of DNA alkylation”. The IC50 at recombinant TDP1 [6] is 37000 to 111000 nM. Moreover, the “trapping of Top1 cleavage complexes at low concentration” value at Human recombinant Top1 [3] is recorded as “trapped Top1 cleavage complexes at a concentration as low as 5 nM”. On Human recombinant Top1 [3] (graded relative to 1 μM camptothecin), the Top1 cleavage result is “+++++”.
